Measurements published in patent US7625950B2, “Amino-propanol derivatives as sphingosine-1-phosphate receptor modulator” (Novartis AG, priority 2003, dated 2009).
Counter-ions that a name gives are not always drawn.

Assays:
[1] = target: T1, human S1P receptor EDG-8 (S1P5) (Homo sapiens, UniProt Q9H228); test: S1P receptor profiling, GTP[γ-35S] binding SPA, S1P5; type: biochemical; conditions: for S1P5 mode of action (Agon. = agonist): GTP[γ-35S] binding SPA; for EC50: GTP[γ-35S] binding to membrane protein of transfected CHO or RH7777 cells, SPA
T1 construct: expressed in transfected cells
T1 sequence (Q9H228 whole entry): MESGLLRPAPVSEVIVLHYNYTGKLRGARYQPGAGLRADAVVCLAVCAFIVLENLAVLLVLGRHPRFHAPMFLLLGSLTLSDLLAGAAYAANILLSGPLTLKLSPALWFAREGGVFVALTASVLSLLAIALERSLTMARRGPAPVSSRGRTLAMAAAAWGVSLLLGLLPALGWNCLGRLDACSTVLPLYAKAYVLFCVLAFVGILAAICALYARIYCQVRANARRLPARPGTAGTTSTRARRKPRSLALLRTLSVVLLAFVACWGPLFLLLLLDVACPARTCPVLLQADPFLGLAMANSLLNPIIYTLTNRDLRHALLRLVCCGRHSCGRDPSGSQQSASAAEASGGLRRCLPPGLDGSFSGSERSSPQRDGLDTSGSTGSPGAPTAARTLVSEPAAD
Method: (§1) Sphingosine-1-Phosphate (S1P) Receptor Profiling
(§2) Agonist activities of compounds are tested on the human SIP receptors EDG-1 (S1P1), EDG-3 (S1P3), EDG-5 (S1P2), EDG-6 (S1P4) and EDG-8 (S1P5). […] The assay technology used is SPA (scintillation proximity based assay). Briefly, DMSO dissolved compounds are serially diluted and added to SPA-bead (Amersham-Pharmacia) immobilised SIP receptor expressing membrane protein (10-20 μg/well) in the presence of 50 mM Hepes, 100 mM NaCl, 10 mM MgCl2, 10 μM GDP, 0.1% fat free BSA and 0.2 nM GTP [γ-^35S] (1200 Ci/mmol). After incubation in 96 well microtiterplates at RT for 120 min, unbound GTP [γ-^35S] is separated by a centrifugation step. Luminescence of SPA beads triggered by membrane bound GTP [γ-^35S] is quantified with a TOP count plate reader (Packard). EC50s are calculated using standard curve fitting software. In this assay, the compounds of formula I have a binding affinity to S1P1 receptor <50 nM.

[2] = target: T2, human S1P receptor EDG-3 (S1P3) (Homo sapiens, UniProt Q99500); test: S1P receptor profiling, GTP[γ-35S] binding SPA, S1P3; type: biochemical; conditions: for EC50: GTP[γ-35S] binding to membrane protein of transfected CHO or RH7777 cells, SPA; for S1P3 mode of action (Agon. = agonist): GTP[γ-35S] binding SPA
T2 construct: expressed in transfected cells
T2 sequence (Q99500 whole entry): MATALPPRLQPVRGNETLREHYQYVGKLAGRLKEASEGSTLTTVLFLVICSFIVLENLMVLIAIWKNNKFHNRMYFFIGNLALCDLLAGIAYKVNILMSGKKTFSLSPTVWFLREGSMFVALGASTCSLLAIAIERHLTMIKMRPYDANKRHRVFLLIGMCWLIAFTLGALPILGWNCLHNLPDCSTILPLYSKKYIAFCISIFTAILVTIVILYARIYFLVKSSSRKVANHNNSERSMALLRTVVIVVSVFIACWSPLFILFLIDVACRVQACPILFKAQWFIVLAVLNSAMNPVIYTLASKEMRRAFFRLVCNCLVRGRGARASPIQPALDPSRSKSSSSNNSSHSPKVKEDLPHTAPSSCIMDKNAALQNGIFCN
Method: as §1, §2

[3] = target: T3, human S1P receptor EDG-1 (S1P1) (Homo sapiens, UniProt P21453); test: S1P receptor profiling, GTP[γ-35S] binding SPA, S1P1; type: biochemical; conditions: for S1P1 mode of action (Agon. = agonist): GTP[γ-35S] binding SPA; for EC50: GTP[γ-35S] binding to membrane protein of transfected CHO or RH7777 cells, SPA
T3 construct: expressed in transfected cells
T3 sequence (P21453 whole entry): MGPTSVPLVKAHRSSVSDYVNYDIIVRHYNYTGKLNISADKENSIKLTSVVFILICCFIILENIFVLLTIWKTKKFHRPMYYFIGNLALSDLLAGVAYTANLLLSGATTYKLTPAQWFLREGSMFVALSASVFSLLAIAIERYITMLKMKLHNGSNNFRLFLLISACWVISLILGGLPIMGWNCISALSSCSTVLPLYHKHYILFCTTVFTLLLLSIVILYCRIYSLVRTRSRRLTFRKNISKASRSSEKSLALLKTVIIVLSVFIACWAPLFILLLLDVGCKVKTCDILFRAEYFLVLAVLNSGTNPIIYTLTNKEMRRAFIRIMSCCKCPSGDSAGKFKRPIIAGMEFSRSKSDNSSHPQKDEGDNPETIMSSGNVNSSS
Method: as §1, §2

[4] = target: T4, human S1P receptor EDG-6 (S1P4) (Homo sapiens, UniProt O95977); test: S1P receptor profiling, GTP[γ-35S] binding SPA, S1P4; type: biochemical; conditions: for S1P4 mode of action (Agon. = agonist): GTP[γ-35S] binding SPA; for EC50: GTP[γ-35S] binding to membrane protein of transfected CHO or RH7777 cells, SPA
T4 construct: expressed in transfected cells
T4 sequence (O95977 1-384): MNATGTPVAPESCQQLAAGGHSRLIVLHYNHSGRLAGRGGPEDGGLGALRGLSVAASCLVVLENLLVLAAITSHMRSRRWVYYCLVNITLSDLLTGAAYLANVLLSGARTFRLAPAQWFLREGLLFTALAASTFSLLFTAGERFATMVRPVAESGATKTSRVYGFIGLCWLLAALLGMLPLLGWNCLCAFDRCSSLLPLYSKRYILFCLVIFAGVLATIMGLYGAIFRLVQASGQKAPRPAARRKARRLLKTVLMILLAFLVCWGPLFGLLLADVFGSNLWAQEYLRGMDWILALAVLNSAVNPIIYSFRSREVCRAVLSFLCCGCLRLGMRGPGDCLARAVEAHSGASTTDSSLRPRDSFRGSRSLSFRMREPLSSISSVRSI
Method: as §1, §2

[5] = system: peripheral blood lymphocytes; test: Blood lymphocyte depletion; type: in vivo; conditions: rats, p.o.
Method: B. In Vivo: Blood Lymphocyte Depletion
A compound of formula I or the vehicle is administered orally by gavage to rats. Tail blood for hematological monitoring is obtained on day −1 to give the baseline individual values, and at 2, 6, 24, 48 and 72 hours after application.

Compound | S1P5 mode of action (Agon. = agonist) [1] | EC50 [1] [µM] | EC50 [2] [µM] | S1P1 mode of action (Agon. = agonist) [3] | EC50 [3] [µM] | S1P4 mode of action (Agon. = agonist) [4] | EC50 [4] [µM] | S1P3 mode of action (Agon. = agonist) [2] | dose giving depletion of peripheral blood lymphocytes by more than 50% ([5]; after 6 h) [mg/kg] | dose giving depletion of peripheral blood lymphocytes by more than 50% ([5]; after 24 h) [mg/kg] | dose giving depletion of peripheral blood lymphocytes by more than 50% ([5]; after 48 h) [mg/kg]
C[C@@](N)(CCc1ccc(OCCOc2ccccc2)cc1)COP(=O)(O)O [Example 38] | Agon. | 0.0117 | > 1 | Agon. | 0.0086 | Agon. | 0.028 |  |  |  | 
C[C@@](N)(CCc1ccc(OCCOc2cccc(F)c2F)cc1)COP(=O)(O)O [Example 42] | Agon. | 0.0063 | > 1 | Agon. | 0.0055 | Agon. | 0.0082 |  |  |  | 
COc1cc(CC[C@@](C)(N)COP(=O)(O)O)ccc1OCCOc1ccccc1 [Example 43] | Agon. | 0.0005 | 0.34 | Agon. | 0.008 | Agon. | 0.043 | Agon. |  |  | 
C[C@](N)(CO)CCc1ccc(OCCOc2ccc(Cl)cc2)cc1 [Example 1, (R)-2-Amino-4-{4-[2-(4-chloro-phenoxy)-ethoxy]-phenyl}-2-methyl-butan-1-ol Hydrochloride] |  |  |  |  |  |  |  |  | 0.03 | 0.02 | 
COc1ccc(Br)cc1OCCCOc1ccc(CC[C@@](C)(N)CO)cc1 [Example 53, (R)-2-Amino-4-{4-[3-(5-bromo-2-methoxy-phenoxy)-propoxy]-phenyl}-2-methyl-butan-1-ol Hydrochloride] |  |  |  |  |  |  |  |  | 0.1 |  | 0.5
COc1ccc(Br)cc1OCCCOc1ccc(CCC(N)(CO)COP(=O)(O)O)cc1 (centres unmarked) [Example 56] | Agon | 0.0165 | > 10 | Agon. | 0.0085 | Agon. | 0.0016 | Agon. |  |  | 
C[C@@](N)(CCc1ccc(OCCOc2ccc(Cl)cc2)cc1)COP(=O)(O)O [Example 36, (R)-Mono-(2-amino-4-{4-[2-(4-chloro-phenoxy)-ethoxy]-phenyl}-2-methyl-butyl) phosphate] | Agon. | 0.014 | 0.015 | Agon. | 0.0006 |  | > 1 | Agon. |  |  | 
